Key:
Type in all cases: cell-based, human
[1] = system: isolated neutrophils; assay: Glutamate biosensor recording of PMA-stimulated glutamate release, glutamate antagonist experiment (FIG. 1E)
Method: Neutrophil preparation from 15 ml of whole blood was achieved by first adding 30 ml PBS under sterile conditions. Half of the PBS/Blood mix was carefully layered on a 15 ml layer of Ficoll-Paque Plus solution in two separate 50 ml falcons using an electronic pipette. The sample was then centrifuged at 1400 rpm at room temp for 30 minutes. 15 ml of sterile blood lysis buffer was added to the pellet centrifuged at 1200 rpm, undergoing 2 lysis cycles. The remaining pellet was washed with sterile PBS, resuspended in 10 ml PBS and the cells were counted. 10 mmol/L of glucose (plasma concentration) was then added in the sample. […]
The sensors were calibrated after every run with stock solutions: 20 μM (in neutrophils) or 40 μM (in blood) of glutamate, <<insert for lactate>> 1 μM (in neutrophils) or 10 μM (in blood) of D-Serine, 10 μM (in neutrophils) or (13.3 μM) of ATP and 0.748 μM adenosine in blood only. To convert changes in the sensor current to changes in the analyte concentrations, the midpoint of the calibration signal at the end of each run and the midpoint of the peak of the net responses (measured from the extrapolated baseline) were used. […]
This experiment was carried out using isolated neutrophils or whole blood from a patient. […] A null sensor measured non-specific release of oxygen reactive species. […]

[2] = system: heparinised whole blood; assay: Acetylcholine biosensor recording of acetylcholine release in whole blood; details: 1 ml heparinised whole blood, 37° C.; FIG. 4
Method: 1.5 ml of the prepared sample (whole blood or isolated neutrophils in PBS/glucose) was pipetted into the temperature controlled chamber with a micro-magnetic stirrer for 5 minutes before the sensors were inserted. The sensors were held on a stereotaxic micro-manipulator with the entire sensing tip inserted in the sample, ensuring maximum analyte detection probability. Recordings were done with either all sensors simultaneously or with various combinations according to the sensor availability and aim of the experiment. Once a steady-state baseline was achieved, 100 nM of PMA or opsonised E. coli were added to the chamber, avoiding contact with the sensors to limit the noise interference. After any detected response signal levelled off, the calibrations were carried out. A control run was always carried out for each experiment where only PMA/E. coli was applied followed by a calibration. The chamber and the sensors were rinsed with PBS or distilled water before every run.
Samples of whole blood from human patients were analysed using the Sarissagold acetylcholine sensor.
PMA was added to 1 ml heparinised whole blood maintained at 37° C. (as indicated by PMA in FIG. 4). A null sensor measured non-specific release of oxygen reactive species. The accetylcholine sensor detects acetylcholine release in real time. The tips of the sensors were 2 mm under the surface of the blood. […]

[3] = system: heparinised whole blood; assay: ATP biosensor recording of ATP release in whole blood; details: 1 ml heparinised whole blood, 37° C.; FIG. 2
Method: (§1) The ATP sensors comprised two enzymes, glycerol kinase and glycerol-3-phosphate Oxidase, the adenosine sensor comprised of three enzymes, adenosine deaminase, nucleoside phosphorylase, and xanthine oxidase while the glutamate sensor contained glutamate oxidase. The D-Serine sensor contained D-amino acid oxidase. The ATP sensor had to be stored in 1M glycerol solution for 30 min to be able to operate.
(§2) 1.5 ml of the prepared sample (whole blood or isolated neutrophils in PBS/glucose) was pipetted into the temperature controlled chamber with a micro-magnetic stirrer for 5 minutes before the sensors were inserted. The sensors were held on a stereotaxic micro-manipulator with the entire sensing tip inserted in the sample, ensuring maximum analyte detection probability. Recordings were done with either all sensors simultaneously or with various combinations according to the sensor availability and aim of the experiment. […] After any detected response signal levelled off, the calibrations were carried out. […]
Samples of whole blood from human patients were analysed using the Sarissagold ATP sensor.
(§3) PMA was added to 1 ml heparinised whole blood maintained at 37° C. […] A null sensor measured non-specific release of oxygen reactive species. […]

[4] = system: heparinised whole blood; assay: D-serine biosensor recording of D-serine release in whole blood; details: 1 ml heparinised whole blood, 37° C.; FIG. 3
Method: as §1, §2
Samples of whole blood from human patients were analysed using the Sarissagold D-Serine sensor.
as §3

[5] = system: heparinised whole blood; assay: Glutamate biosensor recording of glutamate release in stimulated whole blood
Method: Recordings were carried out in a custom made chamber (1.7 ml maximum volume) and the temperature of the chamber was controlled by a Circulator C-85D. The sensors were connected to a Due-Stat ME200+ potentiostat (Sycopel International Ltd, Jarrow, UK) which was then connected to a Power 1401 interface for processing of the signal. The operating potential for Sarissaprobes was +600 mV and −50 mV for Sarissagold sensors (switched to +600 m V when not operating). The recordings were analysed by Spike2 software.
Blood was collected from patients or from healthy volunteers and stored in heparinised vials (local ethics approved). The samples were kept on ice and were tested within 1 h of collection. […]
Unless stated otherwise, samples of whole blood from human patients were analysed using the Sarissaprobes and Sarissagold glutamate sensors. […]

| Compound | PMA-stimulated glutamate release in the presence of the antagonist ([1]; isolated neutrophils, antagonist 100 μM added 1 minute before PMA) | response recorded using the acetylcholine sensor after addition of the stimulus [2] | response recorded using the ATP sensor after addition of the stimulus [3] | release of glutamate ([1]; PMA added to 1 ml heparinised whole blood (so in the source), no antagonist) | response recorded using the D-serine sensor after addition of the stimulus [4] | response recorded using the glutamate sensor after addition of the stimulus ([5]; 1 ml heparinised whole blood, 37° C., FIG. 1A/1B) | glutamate release on subsequent stimulation ([5]; PMA added 5 minutes after opsonised E. coli, FIG. 1C) |
| --- | --- | --- | --- | --- | --- | --- | --- |
| Cc1ccc(CC2(O)CCN(CCOc3ccc(O)cc3)CC2)cc1 [CO101244] | failed to increase glutamate release | – | – | – | – | – | – |
| CCCCCCCCCCCCCC(=O)O[C@@H]1[C@@H](C)[C@@]2(O)[C@@H](C=C(CO)C[C@]3(O)C(=O)C(C)=C[C@@H]23)[C@@H]2C(C)(C)[C@]12OC(C)=O [PMA, phorbol myristate acetate] | – | led to an increase in the response | led to an increase in the response | ~15 μm | led to an increase in the response | led to an increase in the response | failed to increase glutamate release |
